{"source": "patent US20220273590A1", "about": "“COMPOUNDS FOR PREVENTION AND TREATMENT OF POST-OPERATIVE COGNITIVE DYSFUNCTION” (ABREXA PHARMACEUTICALS, INC., priority 2019, published 2022)", "test_system": "animal model of POCD", "assay": "Morris Water Maze (MWM) after abdominal surgery", "type": "in vivo, Wistar rats", "conditions": "chronically treated rats", "protocol": "Male Wistar rats (˜350 g) were randomly divided into 4 experimental groups; non-surgery; control abdominal surgery; surgery+acute J147 treatment (7 mg/rat by gavage, 4-5 hours before surgery); surgery+chronic J147 (500 mg/kg food, 1 week before surgery until the end of the study). Timed blood samples were collected. Days 9-11 post surgery, general behavior (Open field: OF) and cognitive performance (Novel Object/Novel Location Recognition: NOR/NLR; Morris Water Maze: MWM) were tested. Day 14, rats were sacrificed and blood and brain tissue were collected for further analyses. (Neuro)inflammation was examined by circulating cytokine levels and microglia activation in the brain.\nAbdominal surgery was performed as described previously by Hovens et al., 2014. Rats were anaesthetized using sevoflurane (±2.5% in air/O2=2/1) and received 0.01 mg/kg buprenorphine s.c. A heating blanket was used to preserve body temperature. An incision was made along the linea alba and the intestines were exteriorised. […]\nThe second day started with a probe trial to assess early spatial memory. […] We measured how often the rat crossed the place of the platform and how much time he spent in the target quadrant. […]"}
{"smiles": "COc1cccc(/C=N/N(C(=O)C(F)(F)F)c2ccc(C)cc2C)c1", "note": "[J147]", "values": [{"measurement": "spatial and reversal learning (MWM), effect of treatment", "result": "not affected"}, {"measurement": "spatial memory in the MWM", "result": "significantly improved spatial memory"}]}
